Key:
[1] = biological target: T1, prostate-specific membrane antigen (PSMA) (Homo sapiens, UniProt Q04609); assay: competition of YC-27 […]CW binding to LNCaP cells; assay type: cell-based
T1 construct: gene FOLH1

[2] = biological target: T1, prostate-specific membrane antigen (PSMA); assay: NIR fluorescence saturation binding to PSMA-positive […]1 cells (PSMA-negative PC3 M-LN4 control; LNCaP apparent Kd […]); assay type: cell-based

T1 sequence (Q04609 whole entry): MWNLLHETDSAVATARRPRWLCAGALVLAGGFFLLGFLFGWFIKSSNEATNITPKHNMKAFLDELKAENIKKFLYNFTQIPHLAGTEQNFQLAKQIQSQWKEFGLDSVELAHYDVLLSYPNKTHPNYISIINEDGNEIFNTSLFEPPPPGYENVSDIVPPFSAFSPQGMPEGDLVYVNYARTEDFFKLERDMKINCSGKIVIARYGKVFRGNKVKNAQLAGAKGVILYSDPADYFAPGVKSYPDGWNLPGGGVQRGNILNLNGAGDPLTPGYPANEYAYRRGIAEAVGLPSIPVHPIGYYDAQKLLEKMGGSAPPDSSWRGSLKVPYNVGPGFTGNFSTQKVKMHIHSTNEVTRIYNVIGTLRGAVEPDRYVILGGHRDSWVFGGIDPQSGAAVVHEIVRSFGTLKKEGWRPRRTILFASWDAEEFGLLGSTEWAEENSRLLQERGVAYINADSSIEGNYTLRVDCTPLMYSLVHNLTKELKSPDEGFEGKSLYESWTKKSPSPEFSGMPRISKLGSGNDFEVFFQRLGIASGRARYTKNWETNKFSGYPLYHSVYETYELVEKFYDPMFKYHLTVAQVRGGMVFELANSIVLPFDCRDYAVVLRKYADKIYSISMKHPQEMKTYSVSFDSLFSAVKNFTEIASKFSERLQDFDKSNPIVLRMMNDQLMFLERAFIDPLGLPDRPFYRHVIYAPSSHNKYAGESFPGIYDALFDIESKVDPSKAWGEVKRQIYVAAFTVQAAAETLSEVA

Substance: unlabeled YC-27
- IC50 [1]: 1.7 µM

Substance: YC-27 800CW
- Kd [2]: 0.008 µM

Source: paper PMC3997074, “Pharmacokinetic and Biodistribution Assessment of a Near Infrared-Labeled PSMA-Specific Small Molecule in Tumor-Bearing Mice” (Prostate Cancer, 2014)
